Measurements reported in patent publication US20260242320A1, “USE OF CANNABIDIOL DERIVATIVE IN PREPARATION OF MEDICAMENT” (priority 2023, published 2026).
“Also recorded” adds a separate entry of the source.

Assays:
[1] = system: 3×Tg Alzheimer's disease mice; test: Anxiety tests in Alzheimer's disease model mice (high plus maze, open field); format: in vivo; details: i.p., 45 days
Description: For Alzheimer's disease behavioral experiments (Morris water maze, open field experiment, novel object recognition, Y-maze, and elevated cross maze), triple transgenic mouse models (B6:129-Psen1tm1Mpm Tg (APPswe, tauP301L) 1Lfa/J, 3×Tg) were purchased from the Jax Laboratory in the United States. The wild-type mice (C57BL/6J, WT) were purchased from Beijing Vital River Laboratory Animal Technology Co., Ltd. After 45 days of intraperitoneal injection of CIAC001, all mice were subjected to subsequent behavioral experiments. In order to minimize the use of mice, the mice are first tested for sufficient physical strength and normal mental states. Only one behavioral experiment is conducted per day based on the following schedule: day 1: open field test; day 2-3: novel object recognition; day 3: elevated plus maze; day 4: Y-maze; day 5-13: Morris water maze.
The elevated cross maze consisted of two intersecting open arms (25×5×0.5 cm) and two enclosed arms (25×5×16 cm) that were perpendicular to the open arms. A platform (5×5×0.5 cm) was placed in the center of the maze. […]
At the beginning of the experiment, the mouse was placed in the center area of the elevated cross maze, facing one of the enclosed arms. […] A camera connected to a computer was used to capture the mouse's movements, and the number of entries and time spent in the open and enclosed arms were recorded. […]

[2] = system: morphine-conditioned mice; test: Morphine-induced conditioned place preference (CPP); format: in vivo; details: 0.2 mg/kg i.p.
Procedure: Conditional place conditioning (CPP) was conducted using the classic 10-consecutive-day procedure. On days 1 and 2, each mouse was separately placed into the CPP apparatus for 15 min to habituate the apparatus. On day 3 (preconditioning), the time spent in each compartment was recorded to determine any preference for the two compartments. Mice were divided into three groups: vehicle group, 7.5 mg/kg morphine, as well as 7.5 mg/kg morphine+0.2 mg/kg CIAC001. During the conditioning phase, mice were separately isolated in the compartment for 30 min on 6 consecutive days. Mice were given morphine on days 4, 6, and 8, and vehicle (5 mL/kg) was administered on days 5, 7, and 9. The postconditioning phase was carried out 24 h after the last conditioning session. Each mouse was placed in the apparatus and explored freely, and the time spent in each compartment was recorded for 15 min. The CPP score(s) was calculated using the time spent in the drug-paired compartment minus the time spent in the vehicle-paired compartment.

SMILES: C=C(C)[C@@H]1CCC(C)=C[C@H]1c1c(O)cc(C(C)n2nccn2)cc1O (stereo partly drawn) [CIAC001, (1′R,2′R)-4-(1-(2H-1,2,3-Triazol-2-yl)ethyl)-5′-methyl-2′-(prop-1-en-2-yl)-1′,2′,3′,4′-tetrahydro-[1,1′-biphenyl]-2,6-diol]
- Alzheimer's disease induced anxiety (arm entry activity, grid traversal) [1]: restored arm entry activity and grid traversal
- expression of morphine-induced CPP [2]: substantially decreased; also recorded: ameliorated
